# Measured values taken from US11633481B2, “Surfactants for use in healthcare products” (priority 2019, dated 2023).
# Columns and labels:
# Format in all cases: physicochemical
# [1] = Critical micelle concentration and minimum surface tension by Wilhelmy plate method
# Description: These properties may be measured and described by various methods. One method by which surfactants may be described is by the molecule's critical micelle concentration (CMC). CMC may be defined as the concentration of a surfactant at which micelles form, and above which all additional surfactant is incorporated into micelles.
# As surfactant concentration increases, surface tension decreases. Once the surface is completely overlaid with surfactant molecules, micelles begin to form. This point represents the CMC, as well as the minimum surface tension. Further addition of surfactant will not further affect the surface tension. CMC may therefore be measured by observing the change in surface tension as a function of surfactant concentration. One such method for measuring this value is the Wilhemy plate method. A Wilhelmy plate is usually a thin iridium-platinum plate attached to a balance by a wire and placed perpendicularly to the air-liquid interface. The balance is used to measure the force exerted on the plate by wetting. This value is then used to calculate the surface tension (γ) according to Equation 1: γ=F/I cos θ Equation 1: wherein I is equal to the wetted perimeter (2w+2d, in which w and d are the […], respectively) and cos θ, the contact angle between the liquid and the plate, is assumed to be 0 in the absence of an extant literature value.
# (§1) Nuclear magnetic resonance (NMR) spectroscopy was performed on a Bruker 500 MHz spectrometer. The critical micelle concentration (CMC) was determined by the Wilhelmy plate method at 23° C. with a tensiometer (DCAT 11, DataPhysics Instruments GmbH) equipped with a Pt—Ir plate. Dynamic surface tension was determined with a bubble pressure tensiometer (Krüss BP100, Krüss GmbH), at 23° C. Contact angle was determined with the optical contact angle goniometer (OCA 15 Pro, DataPhysics GmbH) equipped with a digital camera.
# [2] = Contact angle (wetting) with optical contact angle goniometer; conditions: 10× CMC in water
# Description: Surface-active compounds may also be assessed by their wetting ability on solid substrates as measured by the contact angle. When a liquid droplet comes in contact with a solid surface in a third medium, such as air, a three-phase line forms among the liquid, the gas and the solid. The angle between the surface tension unit vector, acting at the three-phase line and tangent at the liquid droplet, and the surface is described as the contact angle. The contact angle (also known as wetting angle) is a measure of the wettability of a solid by a liquid. In the case of complete wetting, the liquid is completely spread over the solid and the contact angle is 0°. Wetting properties are typically measured for a given compound at the concentration of 1-100×CMC, however, it is not a property that is concentration-dependent therefore measurements of wetting properties can be measured at concentrations that are higher or lower.
# In one method, an optical contact angle goniometer may be used to measure the contact angle. This device uses a digital camera and software to extract the contact angle by analyze the contour shape of a sessile droplet of liquid on a surface.
# as §1
# [3] = Dynamic surface tension with bubble pressure tensiometer; conditions: 23° C.
# Description: Another parameter used to assess the performance of surfactants is dynamic surface tension. The dynamic surface tension is the value of the surface tension for a particular surface or interface age. In the case of liquids with added surfactants, this can differ from the equilibrium value. Immediately after a surface is produced, the surface tension is equal to that of the pure liquid. As described above, surfactants reduce surface tension; therefore, the surface tension drops until an equilibrium value is reached. The time required for equilibrium to be reached depends on the diffusion rate and the adsorption rate of the surfactant.
# One method by which dynamic surface tension is measured relies upon a bubble pressure tensiometer. This device measures the maximum internal pressure of a gas bubble that is formed in a liquid by means of a capillary. The measured value corresponds to the surface tension at a certain surface age, the time from the start of the bubble formation to the occurrence of the pressure maximum. The dependence of surface tension on surface age can be measured by varying the speed at which bubbles are produced.
# as §1
# Solubility in water = conditions: pure water, without hydrotropes or other surfactants
# [4] = substrate Polyethylene terephthalate
# [5] = chloride counterion, pH=7, 23° C.
SMILES,"critical micelle concentration (CMC) ([1]; in water, 23° C.)","plateau value of minimum surface tension ([1]; in water, 23° C.)",contact angle (CA) ([2]; substrate Nylon) [°],"contact angle (CA) [2, 4] [°]",contact angle (CA) ([2]; substrate Polyethylene) [°],contact angle (CA) ([2]; substrate Polypropylene) [°],contact angle (CA) ([2]; substrate Teflon) [°],time to fully saturate a freshly created air-water interface (dynamic surface tension) [3],contact angle (CA) ([2]; substrate Polyethylene-HD) [°],time to fully saturate the interface (dynamic surface tension) ([3]; freshly created air-water interface),solubility in water (Solubility in water),"critical micelle concentration (CMC) [1, 5]","plateau value of minimum surface tension [1, 5]"
"C[N+](C)([O-])CCCCCC(=O)NCCC[Si](O[Si](C)(C)C)(O[Si](C)(C)C)O[Si](C)(C)C [Surfactant 4, 6-((3-(1,1,1,5,5,5-hexamethyl-3-((trimethylsilyl)oxy)trisiloxan-3-yl)propyl)amino)-N,N-dimethyl-6-oxohexan-1-amine oxide]",about 0.49 mmol,about 20 mN/m,0,0,0,0,10.6,one second or less,,,,,
"C[N+](C)(CCCCCC(=O)NCCC[Si](O[Si](C)(C)C)(O[Si](C)(C)C)O[Si](C)(C)C)CCCCS(=O)(=O)[O-] [Surfactant 5, 4-((6-((3-(1,1,1,5,5,5-hexamethyl-3-((trimethylsilyl)oxy)trisiloxan-3-yl)propyl)amino)-6-oxohexyl)dimethylammonio)butane-1-sulfonate]",about 0.39 mmol,about 21 mN/m,0,0,0,0,10.2,one second or less,0,,,,
"C[N+](C)(C)CCCCCC(=O)NCCC[Si](O[Si](C)(C)C)(O[Si](C)(C)C)O[Si](C)(C)C [Surfactant 3, 6-((3-(1,1,1,5,5,5-hexamethyl-3-((trimethylsilyl)oxy)trisiloxan-3-yl)propyl)amino)-N,N,N-trimethyl-6-oxohexan-1-aminium iodide]",about 1.6 mmol,around 20 mN/m,0,0,0,0,10.5,,,less than 500 ms,,,
"CN(C)CCCCCC(=O)NCCC[Si](O[Si](C)(C)C)(O[Si](C)(C)C)O[Si](C)(C)C [Surfactant 1, 6-(dimethylamino)-N-(3-(1,1,1,5,5,5-hexamethyl-3-((trimethylsilyl)oxy)trisiloxan-3-yl)propyl)hexanamide]",,,,,,,,,,,slightly soluble,,
"CN(C)CCCCCC(=O)NCCC[Si](O[Si](C)(C)C)(O[Si](C)(C)C)O[Si](C)(C)C [Surfactant 2, 6-((3-(1,1,1,5,5,5-hexamethyl-3-((trimethylsilyl)oxy)trisiloxan-3-yl)propyl)amino)-N,N-dimethyl-6-oxohexan-1-aminium chloride]",,,,,,,,,,,,about 2 mmol,about 23 mN/m
